Experimental findings from US8575193B2, “N-substituted tetrahydroisoquinoline/isoindoline hydroxamic acid compounds” (4SC AG, priority 2008, dated 2013) are described below.

One experiment addresses T1, rHDAC6 (Homo sapiens, UniProt Q9UBN7).
T1 construct: FLAG; made in house
T1 sequence (Q9UBN7 1-1215): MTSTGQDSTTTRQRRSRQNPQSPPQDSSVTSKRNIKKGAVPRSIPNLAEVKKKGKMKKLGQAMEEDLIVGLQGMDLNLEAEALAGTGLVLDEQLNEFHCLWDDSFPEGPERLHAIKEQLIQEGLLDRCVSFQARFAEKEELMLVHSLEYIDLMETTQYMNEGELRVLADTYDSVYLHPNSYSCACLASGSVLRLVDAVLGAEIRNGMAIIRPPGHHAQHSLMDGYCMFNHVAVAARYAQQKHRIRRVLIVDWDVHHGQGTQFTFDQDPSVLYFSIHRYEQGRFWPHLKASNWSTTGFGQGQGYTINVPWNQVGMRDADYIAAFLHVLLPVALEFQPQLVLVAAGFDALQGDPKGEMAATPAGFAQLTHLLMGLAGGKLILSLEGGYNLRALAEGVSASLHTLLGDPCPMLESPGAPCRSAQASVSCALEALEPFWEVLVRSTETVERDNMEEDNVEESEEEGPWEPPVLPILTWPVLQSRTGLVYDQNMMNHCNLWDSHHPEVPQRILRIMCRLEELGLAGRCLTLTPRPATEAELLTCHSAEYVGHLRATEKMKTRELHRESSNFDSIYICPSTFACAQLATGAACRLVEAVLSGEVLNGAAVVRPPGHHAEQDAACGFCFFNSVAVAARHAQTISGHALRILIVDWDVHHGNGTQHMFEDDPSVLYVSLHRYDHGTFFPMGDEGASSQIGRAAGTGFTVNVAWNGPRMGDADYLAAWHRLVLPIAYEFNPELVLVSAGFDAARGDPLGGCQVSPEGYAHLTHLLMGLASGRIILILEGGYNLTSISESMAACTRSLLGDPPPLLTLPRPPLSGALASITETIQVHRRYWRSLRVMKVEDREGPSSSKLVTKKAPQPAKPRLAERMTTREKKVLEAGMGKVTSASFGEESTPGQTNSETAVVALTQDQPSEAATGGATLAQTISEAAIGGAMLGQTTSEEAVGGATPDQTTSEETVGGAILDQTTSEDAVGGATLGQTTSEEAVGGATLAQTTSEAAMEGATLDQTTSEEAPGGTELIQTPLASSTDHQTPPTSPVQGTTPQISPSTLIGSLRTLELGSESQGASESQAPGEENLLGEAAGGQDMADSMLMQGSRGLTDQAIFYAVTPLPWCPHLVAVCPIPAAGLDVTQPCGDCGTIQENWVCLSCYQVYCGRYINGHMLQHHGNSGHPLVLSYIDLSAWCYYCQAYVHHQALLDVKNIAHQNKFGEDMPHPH
The experiment in a line: rHDAC6 enzymatic assay (recombinant FLAG-HDAC6). The class given is biochemical. The conditions noted are these: FLAG-HDAC6 from HEK293; 10 μM Ac-NH-GGK(Ac)-AMC, 3 h at 30° C.; read-out: rHDAC6 [pIC50] (converted). The text has this: (§1) Human HDAC1 and HDAC6 fused with the FLAG epitope are stably expressed in HEK293 cells while human HDAC3 and HDAC8 fused with the FLAG epitope are overexpressed in baculo-virus infected insect (Sf21) cells. To ensure stability of FLAG-HDAC3 the SMRT protein is co-expressed in the corresponding insect cells. […] FLAG-HDAC3 and FLAG-HDAC8 are also purified by M2-agarose affinity chromatography after mass cultivation of the insect cells and cell lysis.
(§2) The HDAC enzyme activity assay is done as described by Wegener et al. (Chem. & Biol. 10, 61-68, 2003). Briefly 40 μl of a 1:100 dilution (=0.4 μl) nuclear HeLa extract (mixture of class I and II HDACs), 29 μl enzyme buffer (15 mM Tris HCl pH 8.1, 0.25 mM EDTA, 250 mM NaCl, 10% v:v glycerol) and 1 μl test compound are added to a well of a 96 well microtiter plate and reaction started by addition of 3 μl substrate (Ac-NH-GGK(Ac)-AMC; final concentration 25 μM and final volume […]). […] After incubation at room temperature for further 40 min, fluorescence is measured using a Wallac Victor 1420 multilabel counter (Ex 355 nm, Em 460 nm) for quantification of AMC (7-amino-4-methylcoumarin) generated by trypsine cleavage of the deacetylated peptide. […] The corresponding pIC50 values of the compounds for HDAC inhibitory activity are determined from the concentration-effect curves by means of non-linear regression (Graphpad Prism software).
(§3) The HDAC1, HDAC3 and HDAC6 enzymatic assays are done with slight modifications with recombinant FLAG-HDAC1 and FLAG-HDAC6 proteins isolated from HEK293 cell lysates or recombinant FLAG-HDAC3 isolated from insect cells, respectively. The HDAC8 enzymatic assay using recombinant FLAG-HDAC8 isolated from insect cells is done with a different substrate. About 4.5 ng/well FLAG-HDAC1 and 3.1 ng/well FLAG-HDAC6 (dependent on batches and specific activity) are incubated with 6 μM or 10 μM Ac-NH-GGK(Ac)-AMC substrate, respectively, for 3 h at 30° C. About 1.7 ng/well FLAG-HDAC3 is incubated with 6 μM Ac-NH-GGK(Ac)-AMC substrate for 2 h at 30° C., while approximately 130 ng/well FLAG-HDAC8 is incubated with 50 μM Ac-RHK(Ac)K(Ac)-AMC substrate for 3 h at 30° C. Termination of the reaction and all further steps are done as described for HeLa cell nuclear extracts as a source for HDAC enzymatic activity. The corresponding pIC50 values of the compounds for HDAC1, HDAC3, HDAC6 and HDAC8 inhibitory activity are determined from the concentration-effect curves by means of non-linear regression.

Another experiment concerns the target T2, rHDAC8 (Homo sapiens, UniProt Q9BY41).
T2 construct: FLAG; made in house; host or cells: baculovirus-infected Sf21 insect cells
T2 sequence (Q9BY41 1-377): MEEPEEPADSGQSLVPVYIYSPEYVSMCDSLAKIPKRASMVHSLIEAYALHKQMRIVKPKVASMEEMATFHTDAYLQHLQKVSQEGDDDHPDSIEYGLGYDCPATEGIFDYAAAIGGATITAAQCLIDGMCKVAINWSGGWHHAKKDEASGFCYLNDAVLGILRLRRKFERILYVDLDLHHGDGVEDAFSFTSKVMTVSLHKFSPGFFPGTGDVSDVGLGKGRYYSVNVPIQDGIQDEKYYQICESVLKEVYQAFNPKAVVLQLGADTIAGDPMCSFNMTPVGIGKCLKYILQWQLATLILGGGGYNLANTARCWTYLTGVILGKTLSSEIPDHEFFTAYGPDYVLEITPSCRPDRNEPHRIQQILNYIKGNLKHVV
The experiment in a line: rHDAC8 enzymatic assay (recombinant FLAG-HDAC8). The class given is biochemical. The note with it: FLAG-HDAC8 from insect cells; 50 μM Ac-RHK(Ac)K(Ac)-AMC, 3 h at 30° C.; read-out: rHDAC8 [pIC50] (converted).
Description: as §1, §2, §3

Each structure is given as a SMILES string.

Regarding `Cc1ccc(C(=O)N2CCc3ccc(C(=O)NO)cc3C2)cc1` [Example 23, N-Hydroxy-2-(4-methylbenzoyl)-1,2,3,4-tetrahydroisoquinoline-7-carboxamide], the IC50 on rHDAC6 was 1 to 100 nM; on rHDAC8, 10 to 1000 nM.
Regarding `COc1ccc2[nH]c(C(=O)N3CCc4ccc(C(=O)NO)cc4C3)cc2c1` [Example 24, N-Hydroxy-2-[(5-methoxy-1H-indol-2-yl)carbonyl]-1,2,3,4-tetrahydroisoquinoline-7-carboxamide], the IC50 at rHDAC6 was 1 to 100 nM; at rHDAC8, 10 to 1000 nM.
